Experimental data taken from patent publication US7799924B2, “Substituted homopiperidine, piperidine or pyrrolidine derivatives” (High Point Pharmaceuticals, LLC, priority 2002, dated 2010).

melting point: 222 to 224 °C
SMILES: CN1CCC(c2noc(-c3ccc(-c4ccccc4)cc3)n2)CC1.CS(=O)(=O)O
